Test results: patent US5358951A, “Angiotensin II receptor blocking 2, 3, 6 substituted quinazolinones” (American Cyanamid Company, priority 1993, dated 1994)

System: vasopressor response of angiotensin II
Experiment: AII Challenge: antagonism of angiotensin II vasopressor response
Type: in vivo
Details: for inhibition in vivo at 1 mg/kg: Rattus norvegicus
Method in brief: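 Percent antagonism is based on the systolic blood pressure rise (mmHg) to i.v. angiotensin II at 0.05 and 0.1 ug/kg. Each rat's own predose response was taken as 100%. Challenges were repeated from 30 to 300 min after i.v., i.p. or oral compound in cannulated conscious male SHR, 16-20 weeks old.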

CCCCc1nc2ccc(C3(CO)CC4CCCN4O3)cc2c(=O)n1Cc1ccc(-c2ccccc2-c2nnn[nH]2)cc1 (stereo not drawn) [Example 80, (Trans)-2-butyl-6-[hexahydro-2-(hydroxymethyl)-Pyrrolo[1,2-b]isoxazol-2-yl]-3-[[2'-[1H-tetrazol-5-yl)[1,1'-biphenyl]-4-yl]methyl-4(3H)quinazolinone]
Response Average Change (1 mg/kg P.O., AII 0.05 mcg/kg IV, 30 min post dose): 30 mmHg
Response Average Change (1 mg/kg P.O., AII 0.05 mcg/kg IV, 60 min post dose): 15 mmHg
Response Average Change (1 mg/kg P.O., AII 0.05 mcg/kg IV, 90 min post dose): 22.5 mmHg
Response Average Change (1 mg/kg P.O., AII 0.05 mcg/kg IV, 120 min post dose): 10 mmHg
Response Average Change (1 mg/kg P.O., AII 0.05 mcg/kg IV, 180 min post dose): 19 mmHg
Response Average Change (1 mg/kg P.O., AII 0.05 mcg/kg IV, 240 min post dose): 17.5 mmHg
Response Average Change (1 mg/kg P.O., AII 0.05 mcg/kg IV, 300 min post dose): 30 mmHg
Response Average Change (1 mg/kg P.O., AII 0.1 mcg/kg IV, 30 min post dose): 37.5 mmHg
Response Average Change (1 mg/kg P.O., AII 0.1 mcg/kg IV, 60 min post dose): 32.5 mmHg
Response Average Change (1 mg/kg P.O., AII 0.1 mcg/kg IV, 90 min post dose): 27.5 mmHg
Response Average Change (1 mg/kg P.O., AII 0.1 mcg/kg IV, 120 min post dose): 22.5 mmHg
Response Average Change (1 mg/kg P.O., AII 0.1 mcg/kg IV, 180 min post dose): 25 mmHg
Response Average Change (1 mg/kg P.O., AII 0.1 mcg/kg IV, 240 min post dose): 25 mmHg
Response Average Change (1 mg/kg P.O., AII 0.1 mcg/kg IV, 300 min post dose): 27.5 mmHg
Response Average Change (1 mg/kg i.v., AII 0.05 mcg/kg IV, 30 min post dose): 5 mmHg
Response Average Change (1 mg/kg i.v., AII 0.05 mcg/kg IV, 60 min post dose): 5 mmHg
Response Average Change (1 mg/kg i.v., AII 0.05 mcg/kg IV, 90 min post dose): 9 mmHg
Response Average Change (1 mg/kg i.v., AII 0.05 mcg/kg IV, 120 min post dose): 12.5 mmHg
Response Average Change (1 mg/kg i.v., AII 0.05 mcg/kg IV, 180 min post dose): 12.5 mmHg
Response Average Change (1 mg/kg i.v., AII 0.05 mcg/kg IV, 240 min post dose): 20 mmHg
Response Average Change (1 mg/kg i.v., AII 0.05 mcg/kg IV, 300 min post dose): 16.5 mmHg
Response Average Change (1 mg/kg i.v., AII 0.1 mcg/kg IV, 30 min post dose): 8.5 mmHg
Response Average Change (1 mg/kg i.v., AII 0.1 mcg/kg IV, 60 min post dose): 10 mmHg
Response Average Change (1 mg/kg i.v., AII 0.1 mcg/kg IV, 90 min post dose): 22.5 mmHg
Response Average Change (1 mg/kg i.v., AII 0.1 mcg/kg IV, 120 min post dose): 17.5 mmHg
Response Average Change (1 mg/kg i.v., AII 0.1 mcg/kg IV, 180 min post dose): 17.5 mmHg
Response Average Change (1 mg/kg i.v., AII 0.1 mcg/kg IV, 240 min post dose): 22.5 mmHg
Response Average Change (1 mg/kg i.v., AII 0.1 mcg/kg IV, 300 min post dose): 30 mmHg
inhibition in vivo at 1 mg/kg (iv, 0.5 h, 1 mg/kg i.v., AII 0.05 mcg/kg IV, 30 min post dose): 90%
inhibition in vivo at 1 mg/kg (iv, 0.5 h, 1 mg/kg i.v., AII 0.1 mcg/kg IV, 30 min post dose): 83%
inhibition in vivo at 1 mg/kg (iv, 1 h, 1 mg/kg i.v., AII 0.05 mcg/kg IV, 60 min post dose): 90%
inhibition in vivo at 1 mg/kg (iv, 1 h, 1 mg/kg i.v., AII 0.1 mcg/kg IV, 60 min post dose): 80%
inhibition in vivo at 1 mg/kg (iv, 2 h, 1 mg/kg i.v., AII 0.05 mcg/kg IV, 120 min post dose): 76%
inhibition in vivo at 1 mg/kg (iv, 2 h, 1 mg/kg i.v., AII 0.1 mcg/kg IV, 120 min post dose): 65%
inhibition in vivo at 1 mg/kg (iv, 3 h, 1 mg/kg i.v., AII 0.05 mcg/kg IV, 180 min post dose): 76%
inhibition in vivo at 1 mg/kg (iv, 3 h, 1 mg/kg i.v., AII 0.1 mcg/kg IV, 180 min post dose): 65%
inhibition in vivo at 1 mg/kg (iv, 4 h, 1 mg/kg i.v., AII 0.05 mcg/kg IV, 240 min post dose): 62%
inhibition in vivo at 1 mg/kg (iv, 4 h, 1 mg/kg i.v., AII 0.1 mcg/kg IV, 240 min post dose): 55%
inhibition in vivo at 1 mg/kg (iv, 5 h, 1 mg/kg i.v., AII 0.05 mcg/kg IV, 300 min post dose): 69%
inhibition in vivo at 1 mg/kg (iv, 5 h, 1 mg/kg i.v., AII 0.1 mcg/kg IV, 300 min post dose): 40%
inhibition in vivo at 1 mg/kg (iv, […], 1 mg/kg i.v., AII 0.05 mcg/kg IV, 90 min post dose): 83%
inhibition in vivo at 1 mg/kg (iv, […], 1 mg/kg i.v., AII 0.1 mcg/kg IV, 90 min post dose): 55%
inhibition in vivo at 1 mg/kg (po, 0.5 h, 1 mg/kg P.O., AII 0.05 mcg/kg IV, 30 min post dose): 25%
inhibition in vivo at 1 mg/kg (po, 0.5 h, 1 mg/kg P.O., AII 0.1 mcg/kg IV, 30 min post dose): 6%
inhibition in vivo at 1 mg/kg (po, 1 h, 1 mg/kg P.O., AII 0.05 mcg/kg IV, 60 min post dose): 63%
inhibition in vivo at 1 mg/kg (po, 1 h, 1 mg/kg P.O., AII 0.1 mcg/kg IV, 60 min post dose): 19%
inhibition in vivo at 1 mg/kg (po, 2 h, 1 mg/kg P.O., AII 0.05 mcg/kg IV, 120 min post dose): 75%
inhibition in vivo at 1 mg/kg (po, 2 h, 1 mg/kg P.O., AII 0.1 mcg/kg IV, 120 min post dose): 44%
inhibition in vivo at 1 mg/kg (po, 3 h, 1 mg/kg P.O., AII 0.05 mcg/kg IV, 180 min post dose): 53%
inhibition in vivo at 1 mg/kg (po, 3 h, 1 mg/kg P.O., AII 0.1 mcg/kg IV, 180 min post dose): 38%
inhibition in vivo at 1 mg/kg (po, 4 h, 1 mg/kg P.O., AII 0.05 mcg/kg IV, 240 min post dose): 56%
inhibition in vivo at 1 mg/kg (po, 4 h, 1 mg/kg P.O., AII 0.1 mcg/kg IV, 240 min post dose): 38%
inhibition in vivo at 1 mg/kg (po, 5 h, 1 mg/kg P.O., AII 0.05 mcg/kg IV, 300 min post dose): 25%
inhibition in vivo at 1 mg/kg (po, 5 h, 1 mg/kg P.O., AII 0.1 mcg/kg IV, 300 min post dose): 31%
inhibition in vivo at 1 mg/kg (po, […], 1 mg/kg P.O., AII 0.05 mcg/kg IV, 90 min post dose): 44%
inhibition in vivo at 1 mg/kg (po, […], 1 mg/kg P.O., AII 0.1 mcg/kg IV, 90 min post dose): 31%
